Experiments:
Assay in all cases: relative viability (nuclei count vs DMSO), 5 days (fraction); higher = more cells survive
Ponatinib + Linsitinib = compound: Cc1ccc(C(=O)Nc2ccc(CN3CCN(C)CC3)c(C(F)(F)F)c2)cc1C#Cc1cnc2cccnn12 [Ponatinib] + C[C@]1(O)C[C@@H](c2nc(-c3ccc4ccc(-c5ccccc5)nc4c3)c3c(N)nccn32)C1 [Linsitinib] (partner 1 µM)
Procedure, shortened: (§1)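 Relative viability was taken as the ratio of nuclei in treated wells to nuclei in vehicle wells. Lung cancer cell lines in 1536-well plates received compounds by pin tool one day after seeding, either one drug alone or a fixed anchor-drug dose plus five library-drug doses (not always all listed) in √10 steps. Nuclei were counted on 4× images after 5 days of treatment, and values are medians of duplicate plates.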

Pazopanib + Olaparib = compound: Cc1ccc(Nc2nccc(N(C)c3ccc4c(C)n(C)nc4c3)n2)cc1S(N)(=O)=O [Pazopanib] + O=C(c1cc(Cc2n[nH]c(=O)c3ccccc23)ccc1F)N1CCN(C(=O)C2CC2)CC1 [Olaparib] (partner 8 µM)
Procedure, shortened: as §1

Pazopanib + Pemetrexed = compound: Cc1ccc(Nc2nccc(N(C)c3ccc4c(C)n(C)nc4c3)n2)cc1S(N)(=O)=O [Pazopanib] + Nc1nc2[nH]cc(CCc3ccc(C(=O)N[C@@H](CCC(=O)O)C(=O)O)cc3)c2c(=O)[nH]1 [Pemetrexed] (partner 0.2 µM)
Procedure, shortened: as §1

Pazopanib + Crizotinib = compound: Cc1ccc(Nc2nccc(N(C)c3ccc4c(C)n(C)nc4c3)n2)cc1S(N)(=O)=O [Pazopanib] + C[C@@H](Oc1cc(-c2cnn(C3CCNCC3)c2)cnc1N)c1c(Cl)ccc(F)c1Cl [Crizotinib] (partner 1 µM)
Procedure, shortened: as §1

NCI-H2228
relative viability (Ponatinib + Linsitinib; first compound 0.002 µM): 0.652
relative viability (Ponatinib + Linsitinib; first compound 0.006325 µM): 0.711
relative viability (Ponatinib + Linsitinib; first compound 0.06325 µM): 0.874
relative viability (Ponatinib + Linsitinib; first compound 0.2 µM): 0.73
relative viability (Pazopanib + Olaparib; first compound 0.01 µM): 0.829
relative viability (Pazopanib + Olaparib; first compound 0.03162 µM): 0.492
relative viability (Pazopanib + Olaparib; first compound 0.1 µM): 0.611
relative viability (Pazopanib + Olaparib; first compound 0.3162 µM): 0.574
relative viability (Pazopanib + Olaparib; first compound 1 µM): 0.48
relative viability (Pazopanib + Pemetrexed; first compound 0.01 µM): 0.366
relative viability (Pazopanib + Pemetrexed; first compound 0.03162 µM): 0.337
relative viability (Pazopanib + Pemetrexed; first compound 0.1 µM): 0.296
relative viability (Pazopanib + Pemetrexed; first compound 0.3162 µM): 0.348
relative viability (Pazopanib + Pemetrexed; first compound 1 µM): 0.333
relative viability (Pazopanib + Crizotinib; first compound 0.01 µM): 0.51
relative viability (Pazopanib + Crizotinib; first compound 0.03162 µM): 0.446
relative viability (Pazopanib + Crizotinib; first compound 0.1 µM): 0.402
relative viability (Pazopanib + Crizotinib; first compound 0.3162 µM): 0.496
relative viability (Pazopanib + Crizotinib; first compound 1 µM): 0.366

HOP-62
relative viability (Ponatinib + Linsitinib; first compound 0.002 µM): 0.902
relative viability (Ponatinib + Linsitinib; first compound 0.006325 µM): 0.663
relative viability (Ponatinib + Linsitinib; first compound 0.06325 µM): 0.868
relative viability (Ponatinib + Linsitinib; first compound 0.2 µM): 0.773
relative viability (Pazopanib + Olaparib; first compound 0.01 µM): 0.411
relative viability (Pazopanib + Olaparib; first compound 0.03162 µM): 0.454
relative viability (Pazopanib + Olaparib; first compound 0.1 µM): 0.518
relative viability (Pazopanib + Olaparib; first compound 0.3162 µM): 0.383
relative viability (Pazopanib + Olaparib; first compound 1 µM): 0.288
relative viability (Pazopanib + Pemetrexed; first compound 0.01 µM): 0.366
relative viability (Pazopanib + Pemetrexed; first compound 0.03162 µM): 0.36
relative viability (Pazopanib + Pemetrexed; first compound 0.1 µM): 0.339
relative viability (Pazopanib + Pemetrexed; first compound 0.3162 µM): 0.3
relative viability (Pazopanib + Pemetrexed; first compound 1 µM): 0.224
relative viability (Pazopanib + Crizotinib; first compound 0.01 µM): 0.974
relative viability (Pazopanib + Crizotinib; first compound 0.03162 µM): 0.68
relative viability (Pazopanib + Crizotinib; first compound 0.3162 µM): 0.946
relative viability (Pazopanib + Crizotinib; first compound 1 µM): 0.948

HARA
relative viability (Ponatinib + Linsitinib; first compound 0.002 µM): 0.916
relative viability (Ponatinib + Linsitinib; first compound 0.006325 µM): 0.916
relative viability (Ponatinib + Linsitinib; first compound 0.06325 µM): 0.976
relative viability (Ponatinib + Linsitinib; first compound 0.2 µM): 0.944
relative viability (Pazopanib + Olaparib; first compound 0.01 µM): 0.938
relative viability (Pazopanib + Olaparib; first compound 0.03162 µM): 0.778
relative viability (Pazopanib + Olaparib; first compound 0.1 µM): 0.958
relative viability (Pazopanib + Olaparib; first compound 0.3162 µM): 1.26
relative viability (Pazopanib + Olaparib; first compound 1 µM): 0.795
relative viability (Pazopanib + Pemetrexed; first compound 0.01 µM): 0.245
relative viability (Pazopanib + Pemetrexed; first compound 0.03162 µM): 0.244
relative viability (Pazopanib + Pemetrexed; first compound 0.1 µM): 0.242
relative viability (Pazopanib + Pemetrexed; first compound 0.3162 µM): 0.207
relative viability (Pazopanib + Pemetrexed; first compound 1 µM): 0.237
relative viability (Pazopanib + Crizotinib; first compound 0.01 µM): 1.1
relative viability (Pazopanib + Crizotinib; first compound 0.03162 µM): 1.04
relative viability (Pazopanib + Crizotinib; first compound 0.1 µM): 1.22
relative viability (Pazopanib + Crizotinib; first compound 0.3162 µM): 1.05
relative viability (Pazopanib + Crizotinib; first compound 1 µM): 1.1

PC-14
relative viability (Ponatinib + Linsitinib; first compound 0.002 µM): 0.927
relative viability (Ponatinib + Linsitinib; first compound 0.006325 µM): 0.91
relative viability (Ponatinib + Linsitinib; first compound 0.06325 µM): 1.13
relative viability (Ponatinib + Linsitinib; first compound 0.2 µM): 1.01
relative viability (Pazopanib + Olaparib; first compound 0.01 µM): 0.335
relative viability (Pazopanib + Olaparib; first compound 0.03162 µM): 0.329
relative viability (Pazopanib + Olaparib; first compound 0.1 µM): 0.371
relative viability (Pazopanib + Olaparib; first compound 0.3162 µM): 0.235
relative viability (Pazopanib + Olaparib; first compound 1 µM): 0.319
relative viability (Pazopanib + Pemetrexed; first compound 0.01 µM): 0.133
relative viability (Pazopanib + Pemetrexed; first compound 0.03162 µM): 0.137
relative viability (Pazopanib + Pemetrexed; first compound 0.1 µM): 0.124
relative viability (Pazopanib + Pemetrexed; first compound 0.3162 µM): 0.133
relative viability (Pazopanib + Pemetrexed; first compound 1 µM): 0.126
relative viability (Pazopanib + Crizotinib; first compound 0.01 µM): 0.95
relative viability (Pazopanib + Crizotinib; first compound 0.03162 µM): 0.893
relative viability (Pazopanib + Crizotinib; first compound 0.1 µM): 0.968
relative viability (Pazopanib + Crizotinib; first compound 0.3162 µM): 0.891
relative viability (Pazopanib + Crizotinib; first compound 1 µM): 0.935

NCI-H1755
relative viability (Ponatinib + Linsitinib; first compound 0.002 µM): 0.984
relative viability (Ponatinib + Linsitinib; first compound 0.006325 µM): 0.949
relative viability (Ponatinib + Linsitinib; first compound 0.06325 µM): 1.05
relative viability (Ponatinib + Linsitinib; first compound 0.2 µM): 0.986
relative viability (Pazopanib + Olaparib; first compound 0.01 µM): 0.798
relative viability (Pazopanib + Olaparib; first compound 0.03162 µM): 0.837
relative viability (Pazopanib + Olaparib; first compound 0.1 µM): 0.866
relative viability (Pazopanib + Olaparib; first compound 0.3162 µM): 0.882
relative viability (Pazopanib + Olaparib; first compound 1 µM): 0.944
relative viability (Pazopanib + Pemetrexed; first compound 0.01 µM): 0.438
relative viability (Pazopanib + Pemetrexed; first compound 0.03162 µM): 0.427
relative viability (Pazopanib + Pemetrexed; first compound 0.1 µM): 0.458
relative viability (Pazopanib + Pemetrexed; first compound 0.3162 µM): 0.456
relative viability (Pazopanib + Pemetrexed; first compound 1 µM): 0.42
relative viability (Pazopanib + Crizotinib; first compound 0.01 µM): 0.817
relative viability (Pazopanib + Crizotinib; first compound 0.03162 µM): 0.847
relative viability (Pazopanib + Crizotinib; first compound 0.1 µM): 0.962
relative viability (Pazopanib + Crizotinib; first compound 0.3162 µM): 0.844
relative viability (Pazopanib + Crizotinib; first compound 1 µM): 0.857

HCC-78
relative viability (Ponatinib + Linsitinib; first compound 0.002 µM): 0.412
relative viability (Ponatinib + Linsitinib; first compound 0.006325 µM): 0.519
relative viability (Ponatinib + Linsitinib; first compound 0.06325 µM): 0.605
relative viability (Ponatinib + Linsitinib; first compound 0.2 µM): 0.478
relative viability (Pazopanib + Olaparib; first compound 0.03162 µM): 0.87
relative viability (Pazopanib + Olaparib; first compound 0.1 µM): 0.778
relative viability (Pazopanib + Olaparib; first compound 0.3162 µM): 0.906
relative viability (Pazopanib + Olaparib; first compound 1 µM): 0.995
relative viability (Pazopanib + Pemetrexed; first compound 0.03162 µM): 0.934
relative viability (Pazopanib + Pemetrexed; first compound 0.1 µM): 0.899
relative viability (Pazopanib + Pemetrexed; first compound 0.3162 µM): 0.839
relative viability (Pazopanib + Pemetrexed; first compound 1 µM): 0.927
relative viability (Pazopanib + Crizotinib; first compound 0.01 µM): 0.366
relative viability (Pazopanib + Crizotinib; first compound 0.03162 µM): 0.354
relative viability (Pazopanib + Crizotinib; first compound 0.1 µM): 0.349
relative viability (Pazopanib + Crizotinib; first compound 0.3162 µM): 0.358
relative viability (Pazopanib + Crizotinib; first compound 1 µM): 0.383

NCI-H441
relative viability (Ponatinib + Linsitinib; first compound 0.002 µM): 0.48
relative viability (Ponatinib + Linsitinib; first compound 0.006325 µM): 0.576
relative viability (Ponatinib + Linsitinib; first compound 0.06325 µM): 0.478
relative viability (Ponatinib + Linsitinib; first compound 0.2 µM): 0.5
relative viability (Pazopanib + Olaparib; first compound 0.01 µM): 0.558
relative viability (Pazopanib + Olaparib; first compound 0.03162 µM): 0.519
relative viability (Pazopanib + Olaparib; first compound 0.1 µM): 0.511
relative viability (Pazopanib + Olaparib; first compound 0.3162 µM): 0.429
relative viability (Pazopanib + Olaparib; first compound 1 µM): 0.611
relative viability (Pazopanib + Pemetrexed; first compound 0.01 µM): 0.236
relative viability (Pazopanib + Pemetrexed; first compound 0.03162 µM): 0.274
relative viability (Pazopanib + Pemetrexed; first compound 0.1 µM): 0.272
relative viability (Pazopanib + Pemetrexed; first compound 0.3162 µM): 0.224
relative viability (Pazopanib + Pemetrexed; first compound 1 µM): 0.253
relative viability (Pazopanib + Crizotinib; first compound 0.01 µM): 0.686
relative viability (Pazopanib + Crizotinib; first compound 0.03162 µM): 0.704
relative viability (Pazopanib + Crizotinib; first compound 0.1 µM): 0.639
relative viability (Pazopanib + Crizotinib; first compound 0.3162 µM): 0.625
relative viability (Pazopanib + Crizotinib; first compound 1 µM): 0.596

NCI-H322M
relative viability (Ponatinib + Linsitinib; first compound 0.002 µM): 0.854
relative viability (Ponatinib + Linsitinib; first compound 0.006325 µM): 0.897
relative viability (Ponatinib + Linsitinib; first compound 0.06325 µM): 1.03
relative viability (Ponatinib + Linsitinib; first compound 0.2 µM): 0.819
relative viability (Pazopanib + Olaparib; first compound 0.01 µM): 0.885
relative viability (Pazopanib + Olaparib; first compound 0.03162 µM): 0.817
relative viability (Pazopanib + Olaparib; first compound 0.1 µM): 0.881
relative viability (Pazopanib + Olaparib; first compound 0.3162 µM): 0.71
relative viability (Pazopanib + Olaparib; first compound 1 µM): 0.71
relative viability (Pazopanib + Pemetrexed; first compound 0.01 µM): 0.703
relative viability (Pazopanib + Pemetrexed; first compound 0.03162 µM): 0.662
relative viability (Pazopanib + Pemetrexed; first compound 0.1 µM): 0.633
relative viability (Pazopanib + Pemetrexed; first compound 0.3162 µM): 0.623
relative viability (Pazopanib + Pemetrexed; first compound 1 µM): 0.658
relative viability (Pazopanib + Crizotinib; first compound 0.01 µM): 0.922
relative viability (Pazopanib + Crizotinib; first compound 0.03162 µM): 0.924
relative viability (Pazopanib + Crizotinib; first compound 0.1 µM): 0.784
relative viability (Pazopanib + Crizotinib; first compound 0.3162 µM): 0.893
relative viability (Pazopanib + Crizotinib; first compound 1 µM): 0.844

— the supplement of paper PMC10307832
